# Target: T1, MAGL (Homo sapiens, UniProt Q99685)
# T1 sequence (Q99685 1-303): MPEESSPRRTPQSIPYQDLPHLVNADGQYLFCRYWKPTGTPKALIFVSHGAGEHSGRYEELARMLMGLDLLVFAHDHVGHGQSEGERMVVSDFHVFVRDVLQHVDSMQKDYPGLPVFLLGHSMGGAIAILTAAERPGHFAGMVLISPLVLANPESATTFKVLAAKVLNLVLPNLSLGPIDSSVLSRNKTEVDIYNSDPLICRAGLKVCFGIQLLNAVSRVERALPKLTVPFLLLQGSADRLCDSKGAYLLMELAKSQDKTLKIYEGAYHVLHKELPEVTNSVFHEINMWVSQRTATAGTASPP
# Experiment: MAGL inhibition, 2-AG assay (hydrolysis of 2-arachidonoylglycerol, arachidonic acid by mass spectrometry)
# Format: biochemical
# Details: 2-AG assay (footnote [b])
# Procedure: Alternatively, compounds were profiled for MAGL inhibitory activity by determining the enzymatic activity by following the hydrolysis of the natural substrate 2-arachidonoylglycerol (2-AG) resulting in arachidonic acid, which can be followed by mass spectrometry. This assay is hereinafter abbreviated “2-AG assay”.
# The 2-AG assay was carried out in 384 well assay plates (PP, Greiner Cat #784201) in a total volume of 20 μL. Compound dilutions were made in 100% DMSO (VWR Chemicals 23500.297) in a polypropylene plate in 3-fold dilution steps to give a final concentration range in the assay from 12.5 μM to […]. 0.25 μL compound dilutions (100% DMSO) were added to 9 μL MAGL in assay buffer (50 mM TRIS (GIBCO, 15567-027), 1 mM EDTA (Fluka, 03690-100 mL), 0.01% (v/v) Tween. After shaking, the plate was incubated for 15 min at RT. To start the reaction, 10 μL 2-arachidonoylglycerol in assay buffer was added. The final concentrations in the assay was […] and 8 μM 2-arachidonoylglyerol. After shaking and 30 min incubation at RT, the reaction was quenched by the addition of 40 μL of ACN containing 4 μM of d8-arachidonic acid. The amount of arachidonic acid was traced by an online SPE system (Agilent Rapidfire) coupled to a triple quadrupole mass spectrometer (Agilent 6460). A C18 SPE cartridge (G9205A) was used in an ACN/water liquid setup. The mass spectrometer was operated in negative electrospray mode following the mass transitions 303.1→259.1 for arachidonic acid and 311.1→267.0 for d8-arachidonic acid. The activity of the compounds was calculated based on the ratio of intensities [arachidonic acid/d8-arachidonic acid].
row,SMILES,IC50 [nM]
1,"O=C1CO[C@H]2CCN(C(=O)N3CC(C(OCC(F)(F)F)c4ccc(F)cc4)C3)C[C@H]2N1 (single isomer, unassigned) [Example 106, (4aR,8aS)-6-[3-(R or S)-[(4-Fluorophenyl)-(2,2,2-trifluoroethoxy)methyl]azetidine-1-carbonyl]-4,4a,5,7,8,8a-hexahydropyrido[4,3-b][1,4]oxazin-3-one]",318
2,"O=C1CO[C@H]2CCN(C(=O)N3CCC(C(c4ccccc4)c4cccc(OCCF)c4)CC3)C[C@H]2N1 (single isomer, unassigned) [Example 108, (4aR,8aS)-6-(4-((R or S)-(3-(2-Fluoroethoxy)phenyl)(phenyl)methyl)piperidine-1-carbonyl)hexahydro-2H-pyrido[4,3-b][1,4]oxazin-3(4H)-one]",0.4
3,"O=C1CO[C@H]2CCN(C(=O)N3CCC(C(c4ccc(F)cc4)c4ccc(OCCF)cc4)CC3)C[C@H]2N1 (single isomer, unassigned) [Example 109, (4aR,8aS)-6-(4-((S or R)-(4-(2-Fluoroethoxy)phenyl)(4-fluorophenyl)methyl)piperidine-1-carbonyl)hexahydro-2H-pyrido[4,3-b][1,4]oxazin-3(4H)-one]",0.4
4,"CC(OC1CN(C(=O)N2CC[C@@H]3OCC(=O)N[C@@H]3C2)C1)c1ccc(C(F)(F)F)cc1 (single isomer, unassigned) [Example 114, (4aR,8aS)-6-(3-(1-(R or S)-(4-(Trifluoromethyl)phenyl)ethoxy)azetidine-1-carbonyl)hexahydro-2H-pyrido[4,3-b][1,4]oxazin-3(4H)-one]",49
5,"CC(OC1CN(C(=O)N2CC[C@@H]3OCC(=O)N[C@@H]3C2)C1)c1ccc(C(F)(F)F)cc1 (single isomer, unassigned) [Example 115, (4aR,8aS)-6-(3-(1-(S or R)-4-(Trifluoromethyl)phenyl)ethoxy)azetidine-1-carbonyl)hexahydro-2H-pyrido[4,3-b][1,4]oxazin-3(4H)-one]",79
6,"CC(OC1CN(C(=O)N2CC[C@@H]3OCC(=O)N[C@@H]3C2)C1)c1ccc(F)cc1Cl (single isomer, unassigned) [Example 116, (4aR,8aS)-6-[3-(S or R)-]1-(2-Chloro-4-fluoro-phenyl)ethoxy]azetidine-1-carbonyl]-4,4a,5,7,8,8a-hexahydropyrido[4,3-b][1,4]oxazin-3-one]",92
7,"CC(OC1CN(C(=O)N2CC[C@@H]3OCC(=O)N[C@@H]3C2)C1)c1ccc(F)cc1Cl (single isomer, unassigned) [Example 117, (4aR,8aS)-6-[3-(R or S)-[1-(2-Chloro-4-fluoro-phenyl)ethoxy]azetidine-1-carbonyl]-4,4a,5,7,8,8a-hexahydropyrido[4,3-b][1,4]oxazin-3-one]",30
8,"COc1ccc(C(c2ccccn2)C2CCN(C(=O)N3CC[C@@H]4OCC(=O)N[C@@H]4C3)CC2)cc1OC (single isomer, unassigned) [Example 118, (4aR,8aS)-6-[4-[(R or S)-(3,4-dimethoxyphenyl)-(2-pyridyl)methyl]piperidine-1-carbonyl]-4,4a,5,7,8,8a-hexahydropyrido[4,3-b][1,4]oxazin-3-one]",25
9,"COc1ccc(C(c2ccccn2)C2CCN(C(=O)N3CC[C@@H]4OCC(=O)N[C@@H]4C3)CC2)cc1OC (single isomer, unassigned) [Example 119, (4aR,8aS)-6-[4-[(S or R)-(3,4-dimethoxyphenyl)-(2-pyridyl)methyl]piperidine-1-carbonyl]-4,4a,5,7,8,8a-hexahydropyrido[4,3-b][1,4]oxazin-3-one]",17
10,"COc1ccc(C(c2cccnc2)C2CCN(C(=O)N3CC[C@@H]4OCC(=O)N[C@@H]4C3)CC2)cc1OC (single isomer, unassigned) [Example 135, (4aR,8aS)-6-[4-[(R or S)-(3,4-Dimethoxyphenyl)-(3-pyridyl)methyl]piperidine-1-carbonyl]-4,4a,5,7,8,8a-hexahydropyrido[4,3-b][1,4]oxazin-3-one]",7
11,"COc1ccc(C(c2cccnc2)C2CCN(C(=O)N3CC[C@@H]4OCC(=O)N[C@@H]4C3)CC2)cc1OC (single isomer, unassigned) [Example 136, (4aR,8aS)-6-[4-[(S or R)-(3,4-dimethoxyphenyl)-(3-pyridyl)methyl]piperidine-1-carbonyl]-4,4a,5,7,8,8a-hexahydropyrido[4,3-b][1,4]oxazin-3-one]",14
12,"COc1ccc(C(c2ccncc2)C2CCN(C(=O)N3CC[C@@H]4OCC(=O)N[C@@H]4C3)CC2)cc1OC (single isomer, unassigned) [Example 149, (4aR,8aS)-6-[4-[(R or S)-(3,4-Dimethoxyphenyl)-(4-pyridyl)methyl]piperidine-1-carbonyl]-4,4a,5,7,8,8a-hexahydropyrido[4,3-b][1,4]oxazin-3-one]",51
13,"COc1ccc(C(c2ccncc2)C2CCN(C(=O)N3CC[C@@H]4OCC(=O)N[C@@H]4C3)CC2)cc1OC (single isomer, unassigned) [Example 150, (4aR,8aS)-6-[4-[(S or R)-(3,4-Dimethoxyphenyl)-(4-pyridyl)methyl]piperidine-1-carbonyl]-4,4a,5,7,8,8a-hexahydropyrido[4,3-b][1,4]oxazin-3-one]",8
14,"CC(OC1CN(c2ccc(C3CN(C(=O)N4CC[C@@H]5OCC(=O)N[C@@H]5C4)C3)cc2)C1)C(F)(F)F (single isomer, unassigned) [Example 160, (4aR,8aS)-6-[3-[4-[3-[(1S or 1R)-2,2,2-Trifluoro-1-methyl-ethoxy]azetidin-1-yl]phenyl]azetidine-1-carbonyl]-4,4a,5,7,8,8a-hexahydropyrido[4,3-b][1,4]oxazin-3-one]",1
15,"CC(OC1CN(c2ccc(C3CN(C(=O)N4CC[C@@H]5OCC(=O)N[C@@H]5C4)C3)cc2)C1)C(F)(F)F (single isomer, unassigned) [Example 161, (4aR,8aS)-6-[3-[4-[3-[(1R or 1S)-2,2,2-Trifluoro-1-methyl-ethoxy]azetidin-1-yl]phenyl]azetidine-1-carbonyl]-4,4a,5,7,8,8a-hexahydropyrido[4,3-b][1,4]oxazin-3-one]",4
16,"CS(=O)(=O)c1cccc(C(c2cccnc2)C2CCN(C(=O)N3CC[C@@H]4OCC(=O)N[C@@H]4C3)CC2)c1 (single isomer, unassigned) [Example 175, (4aR,8aS)-6-[4-[(R or S)-(3-methylsulfonylphenyl)-(3-pyridyl)methyl]piperidine-1-carbonyl]-4,4a,5,7,8,8a-hexahydropyrido[4,3-b][1,4]oxazin-3-one]",115
17,"CS(=O)(=O)c1cccc(C(c2cccnc2)C2CCN(C(=O)N3CC[C@@H]4OCC(=O)N[C@@H]4C3)CC2)c1 (single isomer, unassigned) [Example 176, (4aR,8aS)-6-[4-[(R or S)-(3-methylsulfonylphenyl)-(3-pyridyl)methyl]piperidine-1-carbonyl]-4,4a,5,7,8,8a-hexahydropyrido[4,3-b][1,4]oxazin-3-one]",170

# Reference: US20230117324A1, “OXAZINE MONOACYLGLYCEROL LIPASE (MAGL) INHIBITORS” (Hoffmann-La Roche Inc., priority 2018, published 2023)
